Laboratory results: ChEMBL document CHEMBL5696441 (Nat Chem Biol, 2011)

What was measured:
[1] = target: Serine/threonine-protein kinase 33 (Homo sapiens) (UniProt Q9BYT3); test: Inhibition of STK33 (unknown origin) assessed as remaining activity at 1 uM by Kinome scan method relative to control
[2] = target: T1, Serine/threonine-protein kinase PLK4 (Homo sapiens) (UniProt O00444); test: Inhibition of PLK4 (unknown origin) assessed as remaining activity at 1 uM by Kinome scan method relative to control
T1 sequence (whole entry): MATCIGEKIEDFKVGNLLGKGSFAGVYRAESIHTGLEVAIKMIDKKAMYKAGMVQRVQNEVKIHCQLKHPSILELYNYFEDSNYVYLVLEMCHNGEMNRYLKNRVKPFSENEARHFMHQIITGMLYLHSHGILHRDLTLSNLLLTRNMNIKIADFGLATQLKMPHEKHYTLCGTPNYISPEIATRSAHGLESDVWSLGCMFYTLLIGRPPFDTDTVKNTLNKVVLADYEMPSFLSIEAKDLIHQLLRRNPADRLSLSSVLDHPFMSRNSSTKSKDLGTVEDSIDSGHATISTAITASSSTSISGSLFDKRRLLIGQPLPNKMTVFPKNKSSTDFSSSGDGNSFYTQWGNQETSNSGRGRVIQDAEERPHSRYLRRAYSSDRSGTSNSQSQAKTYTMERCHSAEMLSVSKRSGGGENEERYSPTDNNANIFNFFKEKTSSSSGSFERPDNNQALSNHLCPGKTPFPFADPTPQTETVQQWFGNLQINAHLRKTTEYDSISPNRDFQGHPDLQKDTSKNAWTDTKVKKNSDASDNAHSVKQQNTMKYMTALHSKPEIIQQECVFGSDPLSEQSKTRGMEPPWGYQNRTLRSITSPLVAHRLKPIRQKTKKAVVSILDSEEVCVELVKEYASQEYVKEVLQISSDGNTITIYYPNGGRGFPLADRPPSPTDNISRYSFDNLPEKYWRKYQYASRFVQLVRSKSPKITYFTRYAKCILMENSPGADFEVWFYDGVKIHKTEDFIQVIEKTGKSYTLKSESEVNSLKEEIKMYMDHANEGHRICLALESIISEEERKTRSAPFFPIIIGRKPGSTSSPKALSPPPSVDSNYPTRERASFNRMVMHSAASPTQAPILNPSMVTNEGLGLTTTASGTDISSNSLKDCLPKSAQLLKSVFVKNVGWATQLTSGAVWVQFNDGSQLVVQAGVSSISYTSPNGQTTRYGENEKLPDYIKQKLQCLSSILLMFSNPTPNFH

[3] = target: 3-phosphoinositide-dependent protein kinase 1 (Homo sapiens) (UniProt O15530); test: Inhibition of PDPK1 (unknown origin) assessed as remaining activity at 1 uM by Kinome scan method relative to control
Chain of 3-phosphoinositide-dependent protein kinase 1 (Homo sapiens) (O15530 whole entry, canonical isoform): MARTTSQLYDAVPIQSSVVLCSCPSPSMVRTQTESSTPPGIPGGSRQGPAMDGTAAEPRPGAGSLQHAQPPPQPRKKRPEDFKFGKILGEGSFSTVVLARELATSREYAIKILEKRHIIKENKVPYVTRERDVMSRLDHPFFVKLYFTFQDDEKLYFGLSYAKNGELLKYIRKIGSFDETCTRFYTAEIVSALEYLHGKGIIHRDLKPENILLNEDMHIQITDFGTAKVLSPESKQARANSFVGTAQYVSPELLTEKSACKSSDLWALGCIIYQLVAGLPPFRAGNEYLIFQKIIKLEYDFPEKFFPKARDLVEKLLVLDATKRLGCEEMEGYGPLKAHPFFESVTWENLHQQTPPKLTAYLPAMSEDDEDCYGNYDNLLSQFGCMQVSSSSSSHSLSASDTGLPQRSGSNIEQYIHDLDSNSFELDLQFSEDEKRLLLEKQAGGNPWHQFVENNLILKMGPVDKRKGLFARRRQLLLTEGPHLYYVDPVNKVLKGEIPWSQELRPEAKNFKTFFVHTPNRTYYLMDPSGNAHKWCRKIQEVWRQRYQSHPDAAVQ

[4] = target: Casein kinase I isoform delta (Homo sapiens) (UniProt P48730); test: Inhibition of CSNK1D (unknown origin) assessed as remaining activity at 1 uM by Kinome scan method relative to control
Chain of Casein kinase I isoform delta (Homo sapiens) (P48730 whole entry, looked up, canonical isoform): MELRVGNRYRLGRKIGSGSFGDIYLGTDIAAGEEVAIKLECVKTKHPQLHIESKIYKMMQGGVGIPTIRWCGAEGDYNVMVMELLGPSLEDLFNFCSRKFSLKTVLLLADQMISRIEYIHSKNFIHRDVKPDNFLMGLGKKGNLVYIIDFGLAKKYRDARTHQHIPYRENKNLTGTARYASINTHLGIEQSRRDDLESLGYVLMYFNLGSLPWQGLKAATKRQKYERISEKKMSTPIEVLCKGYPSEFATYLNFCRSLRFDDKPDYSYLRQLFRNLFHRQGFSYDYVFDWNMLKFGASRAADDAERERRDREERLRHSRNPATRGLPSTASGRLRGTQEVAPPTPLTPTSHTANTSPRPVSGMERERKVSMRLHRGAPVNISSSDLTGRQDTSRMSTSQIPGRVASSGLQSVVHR

[5] = target: Receptor-interacting serine/threonine-protein kinase 4 (Homo sapiens) (UniProt P57078); test: Inhibition of RIPK4 (unknown origin) assessed as remaining activity at 1 uM by Kinome scan method relative to control
Chain of Receptor-interacting serine/threonine-protein kinase 4 (Homo sapiens) (P57078 whole entry): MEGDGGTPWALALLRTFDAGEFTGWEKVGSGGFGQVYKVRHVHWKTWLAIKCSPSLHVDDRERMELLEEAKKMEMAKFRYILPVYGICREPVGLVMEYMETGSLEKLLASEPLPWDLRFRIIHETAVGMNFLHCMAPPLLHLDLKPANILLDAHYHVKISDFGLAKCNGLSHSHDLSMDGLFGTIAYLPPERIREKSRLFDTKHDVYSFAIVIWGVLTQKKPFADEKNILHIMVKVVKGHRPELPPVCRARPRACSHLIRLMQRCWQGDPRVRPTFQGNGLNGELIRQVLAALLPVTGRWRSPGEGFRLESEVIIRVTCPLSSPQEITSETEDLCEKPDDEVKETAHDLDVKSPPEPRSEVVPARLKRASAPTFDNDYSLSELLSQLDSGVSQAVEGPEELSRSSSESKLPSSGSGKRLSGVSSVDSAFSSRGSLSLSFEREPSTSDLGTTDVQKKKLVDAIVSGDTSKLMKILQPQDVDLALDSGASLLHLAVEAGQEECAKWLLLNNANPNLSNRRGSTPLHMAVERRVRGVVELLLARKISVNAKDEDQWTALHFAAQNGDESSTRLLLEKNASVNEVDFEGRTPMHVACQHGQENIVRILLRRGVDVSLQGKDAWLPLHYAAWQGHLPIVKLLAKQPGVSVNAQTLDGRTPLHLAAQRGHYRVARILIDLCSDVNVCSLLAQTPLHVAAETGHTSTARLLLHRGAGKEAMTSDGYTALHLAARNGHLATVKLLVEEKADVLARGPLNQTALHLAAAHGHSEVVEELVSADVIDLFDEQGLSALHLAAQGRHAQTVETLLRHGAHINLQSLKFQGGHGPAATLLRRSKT

[6] = target: Mitogen-activated protein kinase 4 (Homo sapiens) (UniProt P31152); test: Inhibition of ERK4 (unknown origin) assessed as remaining activity at 1 uM by Kinome scan method relative to control
Chain of Mitogen-activated protein kinase 4 (Homo sapiens) (P31152 whole entry): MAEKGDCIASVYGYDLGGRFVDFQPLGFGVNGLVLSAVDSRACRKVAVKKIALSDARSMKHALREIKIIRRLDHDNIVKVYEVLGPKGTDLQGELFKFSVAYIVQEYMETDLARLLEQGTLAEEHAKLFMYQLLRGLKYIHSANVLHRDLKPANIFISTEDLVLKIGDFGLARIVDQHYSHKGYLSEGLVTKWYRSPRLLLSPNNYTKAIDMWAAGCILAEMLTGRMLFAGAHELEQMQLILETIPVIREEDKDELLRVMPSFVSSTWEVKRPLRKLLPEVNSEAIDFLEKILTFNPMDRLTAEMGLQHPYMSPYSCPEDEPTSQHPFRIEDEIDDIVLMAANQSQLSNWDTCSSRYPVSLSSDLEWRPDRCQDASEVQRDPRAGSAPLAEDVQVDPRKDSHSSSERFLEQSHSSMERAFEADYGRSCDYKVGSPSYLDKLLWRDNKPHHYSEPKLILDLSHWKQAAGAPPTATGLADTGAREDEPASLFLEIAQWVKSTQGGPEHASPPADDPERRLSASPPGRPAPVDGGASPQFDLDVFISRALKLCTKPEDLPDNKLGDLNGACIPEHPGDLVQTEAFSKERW

[7] = test system: Tyrosine-protein kinase ABL1 (Homo sapiens), P00519 [F317L]; test: Inhibition of ABL1 F317L mutant (unknown origin) assessed as remaining activity at 1 uM by Kinome scan method relative to control
[8] = target: Serine/threonine-protein kinase pim-3 (Homo sapiens) (UniProt Q86V86); test: Inhibition of PIM3 (unknown origin) assessed as remaining activity at 1 uM by Kinome scan method relative to control
[9] = Anti-inflammatory activity against human derived high respond PBMC cells assessed as inhibition in stimulated IL-1ra cytokine release incubated for 2 hrs in the presence of LPS/SEB/aCD28 by Luminex based sandwich immunoassay; format: functional, cell-based
[10] = Anti-inflammatory activity against human derived high respond PBMC cells assessed as inhibition in stimulated IL-6 cytokine release incubated for 2 hrs in the presence of LPS/SEB/aCD28 by Luminex based sandwich immunoassay; format: functional, cell-based
[11] = test system: Tyrosine-protein kinase ABL1 (Homo sapiens), P00519 [M351T]; test: Inhibition of ABL1 M351T mutant (unknown origin) assessed as remaining activity at 1 uM by Kinome scan method relative to control
[12] = target: Eukaryotic elongation factor 2 kinase (Homo sapiens) (UniProt O00418); test: Inhibition of human EEF2K assessed as residual activity at 1 uM using RBER-GSK3 as substrate in presence of 33P-ATP by ProQinase assay relative to control
Chain of Eukaryotic elongation factor 2 kinase (Homo sapiens) (O00418 whole entry): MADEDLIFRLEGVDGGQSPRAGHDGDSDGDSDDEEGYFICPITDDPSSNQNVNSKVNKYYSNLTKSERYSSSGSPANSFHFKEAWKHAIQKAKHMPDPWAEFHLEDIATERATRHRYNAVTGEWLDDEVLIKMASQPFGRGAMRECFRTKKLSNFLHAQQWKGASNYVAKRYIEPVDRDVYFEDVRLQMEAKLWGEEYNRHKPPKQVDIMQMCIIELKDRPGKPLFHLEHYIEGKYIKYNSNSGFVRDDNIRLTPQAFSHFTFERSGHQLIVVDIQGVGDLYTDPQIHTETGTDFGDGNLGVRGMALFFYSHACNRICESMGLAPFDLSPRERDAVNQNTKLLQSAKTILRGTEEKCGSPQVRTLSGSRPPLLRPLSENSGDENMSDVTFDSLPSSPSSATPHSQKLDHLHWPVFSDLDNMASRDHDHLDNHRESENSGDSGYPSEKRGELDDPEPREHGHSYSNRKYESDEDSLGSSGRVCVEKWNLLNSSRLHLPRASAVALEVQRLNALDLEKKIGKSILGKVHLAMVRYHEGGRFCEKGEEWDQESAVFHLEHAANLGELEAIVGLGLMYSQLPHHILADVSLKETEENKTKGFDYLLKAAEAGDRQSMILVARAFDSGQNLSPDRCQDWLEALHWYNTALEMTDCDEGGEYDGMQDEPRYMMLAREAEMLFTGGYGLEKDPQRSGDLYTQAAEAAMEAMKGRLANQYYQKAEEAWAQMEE

[13] = target: Cyclin-dependent kinase 4/cyclin D1 (Homo sapiens) (UniProt P11802+P24385); test: Inhibition of human CDK4/CyclinD1 assessed as residual activity at 1 uM using RBER-CHKtide as substrate in presence of 33P-ATP by ProQinase assay relative to control; format: protein-complex assay
[14] = target: Homeodomain-interacting protein kinase 2 (Homo sapiens) (UniProt Q9H2X6); test: Inhibition of human HIPK2 assessed as residual activity at 1 uM using RBER-CHKtide as substrate in presence of 33P-ATP by ProQinase assay relative to control
[15] = target: T2, Homeodomain-interacting protein kinase 4 (Homo sapiens) (UniProt Q8NE63); test: Inhibition of human HIPK4 assessed as residual activity at 1 uM using RBER-IRStide as substrate in presence of 33P-ATP by ProQinase assay relative to control
T2 sequence (whole entry): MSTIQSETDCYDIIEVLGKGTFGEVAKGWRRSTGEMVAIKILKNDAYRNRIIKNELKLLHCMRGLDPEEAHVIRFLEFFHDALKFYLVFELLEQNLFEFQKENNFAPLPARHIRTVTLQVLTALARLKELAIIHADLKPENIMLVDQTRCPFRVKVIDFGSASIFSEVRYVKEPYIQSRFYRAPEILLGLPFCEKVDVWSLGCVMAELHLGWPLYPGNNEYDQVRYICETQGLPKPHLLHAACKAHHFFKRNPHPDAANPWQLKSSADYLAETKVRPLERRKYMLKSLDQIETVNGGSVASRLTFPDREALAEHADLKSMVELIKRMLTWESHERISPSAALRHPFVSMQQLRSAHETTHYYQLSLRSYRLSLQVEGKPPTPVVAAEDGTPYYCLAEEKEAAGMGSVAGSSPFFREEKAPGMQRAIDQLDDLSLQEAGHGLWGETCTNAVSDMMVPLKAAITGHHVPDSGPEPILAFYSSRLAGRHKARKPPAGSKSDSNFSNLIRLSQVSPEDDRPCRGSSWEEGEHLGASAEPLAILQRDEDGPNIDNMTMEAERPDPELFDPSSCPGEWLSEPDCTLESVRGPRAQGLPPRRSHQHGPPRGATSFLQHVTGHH

Chain of Serine/threonine-protein kinase 33 (Homo sapiens) (Q9BYT3 whole entry, looked up): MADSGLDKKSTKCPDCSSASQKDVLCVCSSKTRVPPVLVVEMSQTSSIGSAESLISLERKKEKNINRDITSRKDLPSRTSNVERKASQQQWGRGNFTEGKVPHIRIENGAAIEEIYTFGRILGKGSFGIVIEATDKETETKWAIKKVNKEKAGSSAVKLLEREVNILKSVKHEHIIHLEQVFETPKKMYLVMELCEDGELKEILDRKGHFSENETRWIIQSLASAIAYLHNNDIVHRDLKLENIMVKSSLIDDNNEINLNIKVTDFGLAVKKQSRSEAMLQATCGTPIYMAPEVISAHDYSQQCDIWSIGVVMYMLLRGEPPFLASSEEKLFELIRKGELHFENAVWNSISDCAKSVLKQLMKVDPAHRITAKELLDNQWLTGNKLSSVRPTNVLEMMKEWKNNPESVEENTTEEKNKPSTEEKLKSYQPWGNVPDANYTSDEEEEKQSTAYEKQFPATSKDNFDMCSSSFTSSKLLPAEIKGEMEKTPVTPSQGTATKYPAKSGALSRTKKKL

Work on `Nc1ccccc1Nc1ccc2c(c1)CCc1ccccc1C2=O` yielded an Activity [1] of 82%, an Activity [2] of 98% and an Activity [3] of 90%. The Activity [4] was 98%, the Activity [5] was 80% and the Activity [6] was 97%. For the same molecule, the Activity [7] was 87%.
Molecule `O=C1c2ccc(Nc3ccc(F)cc3F)cc2CCc2ccc(OC[C@H](O)CO)cc21` [Skepinone-L] has an Activity [8] of 100%, an IC50 [9] of 200 nM and an IC50 [10] of 650 nM. For the same molecule, the Activity [1] was 100%, the Activity [2] was 97% and the Activity [11] was 100%. It also gave an Activity [3] of 100%, an Activity [12] of 88% and an Activity [4] of 100%. The Activity [5] was 90%, the Activity [13] was 92% and the Activity [14] was 104%. For the same molecule, the Activity [15] was 116%, the Activity [6] was 100% and the Activity [7] was 100%.
